Experimental data taken from patent US20100204460A1, “NATURAL BRASSINOSTEROIDS FOR USE FOR TREATING HYPERPROLIFERATION, TREATING PROLIFERATIVE DISEASES AND REDUCING ADVERSE EFFECTS OF STEROID DYSFUNCTION IN MAMMALS, PHARMACEUTICAL COMPOSITION AND ITS USE” (priority 2007, published 2010).
Where “and” joins values, the source holds several entries; their conditions need not be identical. Equal entries are not always repeated.

Key:
Assay type in all cases: cell-based
[1] = tested on: T-lymphoblastic leukaemia cell line CEM; experiment: Calcein AM cytotoxicity assay, CEM; conditions: CEM; six 4-fold dilutions, exposure 72 h (b71 says 96 h); mean ± SD; read-out: IC50 assessed by Calcein AM assay of surviving cells
[2] = tested on: malignant human melanoma cell line G361; experiment: Calcein AM cytotoxicity assay, G 361; conditions: G 361; exposure 72 h (b71 says 96 h); mean ± SD; read-out: IC50 assessed by Calcein AM assay of surviving cells
[3] = tested on: normal human fibroblasts (BJ); experiment: Calcein AM cytotoxicity assay, BJ; conditions: BJ normal fibroblasts; exposure 72 h (b71 says 96 h); mean ± SD; read-out: IC50 assessed by Calcein AM assay of surviving cells
[4] = tested on: DU-145 (androgen-insensitive) prostate cancer cell line; experiment: MTT cytotoxicity test, DU-145; conditions: 24 h, mean ± SD, read-out: IC50 determined by MTT cytotoxicity test
Experimental: 3-(4,5-Dimethylthiazol-2-yl)-2,5-diphenyltetrazolium bromide (MTT) was from Serva Electrophoresis (Heidelberg, Germany). Monoclonal mouse anti-bromodeoxyuridine (BrdU) intibody was obtained from DakoCytomation (Glostrup, Denmark). Calcein AM was obtained from PAA Laboratories GmbH (Pasching, Austria). […] All other cells were cultured in DMEM medium (Sigma, MO, USA). All used media were supplemented with 10% heat-inactivated fetal bovine serum, 2 mmol/L L-glutamine, 1% penicillin/streptomycin. The cell lines were maintained under standard cell culture conditions at 37° C. and 5% CO2 in a humid environment. Cells were subcultured twice or three times a week using the standard trypsinization procedure (Sigma, USA).
Cell viability in this case was assessed by 3-(4,5-dimethylthiozol-2-yl)-2,5-diphenyltetrazolium bromide (MTT) to determine IC50 concentrations of studied agents as described previously. […] The cells (70% to 80% confluent) were treated with brassinosteroids for 6, 12 and 24 h in cell culture medium. Cells that were used as controls were incubated with the maximum used amount of steroid diluent DMSO only. […] The absorbance was read using an ELISA reader Labsystem Multiscan RC at 570 nm. The viability of treated cells was related to the viability of control cells that represented 100% viability. […]

MCF-7 cells = experiment: TUNEL detection of apoptosis, MCF-7; conditions: IC50 concentration
Experimental: (§1) TdT-Mediated dUTP nick end labeling (TUNEL) detection of apoptosis index. For detection of apoptotic cells, the TUNEL assay was used. […] After period of treatment, the cells were washed with PBS and fixed on the slides with cold acetone-methanol (1:1, v/v) for 10 min. Apoptosis-induced nuclear DNA fragmentation was detected by terminal deoxynucleotidyl transferase-mediated UTP nick end labeling (TUNEL) technique according to the producer protocol (In Situ Cell Death Detection Kit; Roche Diagnostics, Mannheim, Germany). The cells were then washed three times in PBS and stained with 4′-6-diamidino-2-phenylindole (DAPI; 50 μg/ml; Sigma, St. Louis, Mo., USA) for 10 min in the dark. The coverslips with cells were washed in deionized water and mounted on glass slides, using the hydrophilic medium Mowiol (Calbiochem, Fremont, Calif., USA) in glycerol-PBS (1:3, v/v) for fluorescence. Cells were visualized using fluorescence microscopy and compared with control cells. TUNEL staining achieved to confirm apoptosis in all cell lines.

MDA-MB-468 cells = experiment: TUNEL detection of apoptosis, MDA-MB-468; conditions: IC50 concentration, control 0.0 ± 0.0
Experimental: as §1

LNCaP cells = experiment: TUNEL detection of apoptosis, LNCaP; conditions: IC50 concentration
Experimental: as §1

DU-145 cells = experiment: TUNEL detection of apoptosis, DU-145; conditions: IC50 concentration, control 0.0 ± 0.0
Experimental: as §1

SMILES	IC50 [1]	IC50 [2]	IC50 [3]	IC50 [4]	percentage of TUNEL positive cells (MCF-7 cells; 6 h, control 0.0 ± 0.0)	percentage of TUNEL positive cells (MCF-7 cells; 12 h, control 0.0 ± 0.0)	percentage of TUNEL positive cells (MCF-7 cells; 24 h, control 0.3 ± 0.6)	percentage of TUNEL positive cells (MDA-MB-468 cells; 6 h)	percentage of TUNEL positive cells (MDA-MB-468 cells; 12 h)	percentage of TUNEL positive cells (MDA-MB-468 cells; 24 h)	percentage of TUNEL positive cells (LNCaP cells; 6 h, control 0.3 ± 0.6)	percentage of TUNEL positive cells (LNCaP cells; 12 h, control 0.6 ± 0.6)	percentage of TUNEL positive cells (LNCaP cells; 24 h, control 0.6 ± 0.6)	percentage of TUNEL positive cells (DU-145 cells; 6 h)	percentage of TUNEL positive cells (DU-145 cells; 12 h)	percentage of TUNEL positive cells (DU-145 cells; 24 h)
CC[C@@H](C(C)C)[C@@H](O)[C@H](O)[C@@H](C)[C@H]1CC[C@H]2[C@@H]3CC(=O)[C@H]4C[C@H](O)[C@H](O)C[C@]4(C)[C@H]3CC[C@]12C [Brassinosteroid 9, 28-Homocastasterone]	13 µM	> 50 µM	> 50 µM	45 ± 2.8 µM	10.6 ± 1.5 %	13.7 ± 3.8 %	13.7 ± 2.6 %	1.7 ± 0.6%	2.3 ± 0.6%	4.3 ± 0.6 %	7.3 ± 2.1 %	15.7 ± 2.5 %	25.8% and 25.8 ± 2.5 %	6.0 ± 2.0 %	7.5 ± 4.0 %	8.0 ± 4.0 %
CC(C)[C@@H](C)[C@@H](O)[C@H](O)[C@@H](C)[C@H]1CC[C@H]2[C@@H]3COC(=O)[C@H]4C[C@H](O)[C@H](O)C[C@]4(C)[C@H]3CC[C@]12C [Brassinosteroid 6, 24-Epibrassinolide]	44 ± 2.2 µM	> 50 µM	> 50 µM	65 ± 0.9 µM	2.7 ± 1.2 %	8.3 ± 3.1 %	11.7 ± 3.8 %	4.7 ± 0.6 %	16.7 ± 4.7 %	18.3 ± 3.0 %	10.7 ± 4.0 %	12.2 ± 5.1 %	21.9% and 21.9 ± 3.0 %	4.7 ± 2.5 %	5.6 ± 2.0 %	5.1 ± 5.6 %
